This is an account of results in patent publication US20100311714A1, “1H-IMIDAZO[4,5-c]QUINOLINONE COMPOUNDS” (priority 2009, published 2010).

The assay deals with T1, PI3K gamma (Homo sapiens, UniProt P48736).
T1 construct: His tag (C); made in house; host or cells: construct from Roger Williams lab (pVL1393); baculovirus BV950; Tn5 (Trichoplusia ni) or TiniPro insect cells
Kind of assay: PI3K gamma kinase assay (Kinase-Glo luminescence). The class given is biochemical. Particulars: read-out: PI3Kgamma/IC50. The procedure: In a more preferred assay, the kinase reaction is performed in a final volume of 10 μL per well of a low volume non binding CORNING, 384 well black plate (Cat. No. #3676). The final concentrations of ATP and phosphatidyl inositol (PI) in the assay are 1 μM and 10 μg/mL respectively. The reaction is started by the addition of ATP.
The components of the assay are added per well as follows:
50 nL test compounds in 90% DMSO per well, in columns 1-20, 8 concentrations (⅓ and 1/3.33 serial dilution step) in single. • Low control: […] of 90% DMSO in half the wells of columns 23-24 (0.45% in final). • High control: 50 nL of reference compound (e.g. compound of Example 7 in WO 2006/122806) in the other half of columns 23-24 (2.5 μM in final). • Standard: 50 nL of reference compound as just mentioned diluted as the test compounds in columns 21-22 • 20 mL ‘buffer’ are prepared per assay: • 200 μL of 1M TRIS HCl pH7.5 (10 mM in final) • 60 μL of 1M MgCl2 (3 mM in final) • 500 μL of 2M NaCl (50 mM in final) • 100 μL of 10% CHAPS (0.05% in final) • 200 μL of 100 mM DTT (1 mM in final) • 18.94 mL of nanopure water • 10 mL ‘PI’ are prepared per assay: • 200 μL of 1 mg/ml L-alpha-Phosphatidylinositol (Liver Bovine, Avanti Polar Lipids Cat. No. 840042C MW=909.12) prepared in 3% OctylGlucoside (10 μg/ml in final) • 9.8 mL of ‘buffer’ • 10 mL ‘ATP’ are prepared per assay: • 6.7 μL of 3 mM stock of ATP giving a final concentration of 1 μM per well • 10 mL of ‘buffer’ • 2.5 mL of each PI3K construct are prepared per assay in ‘PI’ with the following final concentration: • 10 nM PI3K alfa EMV B1075 • 25 nM beta EMV BV949 • 10 nM delta EMV BV1060 • 150 nM gamma EMV BV950 • 5 μL of ‘PI/PI3K’ are added per well. • 5 μl ‘ATP’ are added per well to start the reaction. • The plates are then incubated at room temperature for 60 minutes (alfa, beta, delta) or 120 minutes (gamma). • The reaction is terminated by the addition of 10 μL Kinase-Glo (Promega Cat. No. #6714). • The assay plates are read after 10 minutes in Synergy 2 reader (BioTek, Vermont USA) with an integration time of 100 milliseconds and sensitivity set to 191. • Output: The High control is around 60′000 counts and the Low control is 30′000 or lower • This luminescence assay gives a useful Z′ ratio between 0.4 and 0.7
PI3K gamma is purified in two chromatographic steps: immobilized metal affinity chromatography (IMAC) on a Ni Sepharose resin (GE Healthcare) and gel filtration (GFC) utilizing a Superdex 200 26/60 column (GE Healthcare). All buffers are chilled to 4° C. and lysis is performed chilled on ice. Column fractionation is performed rapidly at room temperature. Typically frozen insect cells are lysed in a hypertonic lysis buffer and applied to a prepared IMAC column. The resin is washed with 3-5 column volumes of lysis buffer, followed by 3-5 column volumes wash buffer containing 45 mM imidazole, and the target protein is then eluted with a buffer containing 250 mM imidazole. Fractions are analyzed by Coomassie stained SDS-PAGE gels, and fractions containing target protein are pooled and applied to a prepared GFC column. Fractions from the GFC column are analyzed by Coomassie stained SDS-PAGE gels, and fractions containing target protein are pooled. The final pool is dialyzed into a storage buffer containing 50% glycerol and stored at −20° C. The final pool is assayed for activity in the phosphoinostitol kinase assay.
IC50 is determined by a four parameter curve fitting routine that comes along with “excel fit”. A 4 Parameter logistic equation is used to calculate IC50 values (IDBS XLfit) of the percentage inhibition of each compound at 8 concentrations (usually 10, 3.0, 1.0, 0.3, 0.1, 0.030, 0.010 and 0.003 μM). Alternatively, IC50 values are calculated using idbsXLfit model 204, which is a 4 parameter logistic model.
Background: In Kinase-Glo more light means more ATP remaining.

Structures are written as SMILES.

T1 sequence (P48736 144-1102 limits assumed): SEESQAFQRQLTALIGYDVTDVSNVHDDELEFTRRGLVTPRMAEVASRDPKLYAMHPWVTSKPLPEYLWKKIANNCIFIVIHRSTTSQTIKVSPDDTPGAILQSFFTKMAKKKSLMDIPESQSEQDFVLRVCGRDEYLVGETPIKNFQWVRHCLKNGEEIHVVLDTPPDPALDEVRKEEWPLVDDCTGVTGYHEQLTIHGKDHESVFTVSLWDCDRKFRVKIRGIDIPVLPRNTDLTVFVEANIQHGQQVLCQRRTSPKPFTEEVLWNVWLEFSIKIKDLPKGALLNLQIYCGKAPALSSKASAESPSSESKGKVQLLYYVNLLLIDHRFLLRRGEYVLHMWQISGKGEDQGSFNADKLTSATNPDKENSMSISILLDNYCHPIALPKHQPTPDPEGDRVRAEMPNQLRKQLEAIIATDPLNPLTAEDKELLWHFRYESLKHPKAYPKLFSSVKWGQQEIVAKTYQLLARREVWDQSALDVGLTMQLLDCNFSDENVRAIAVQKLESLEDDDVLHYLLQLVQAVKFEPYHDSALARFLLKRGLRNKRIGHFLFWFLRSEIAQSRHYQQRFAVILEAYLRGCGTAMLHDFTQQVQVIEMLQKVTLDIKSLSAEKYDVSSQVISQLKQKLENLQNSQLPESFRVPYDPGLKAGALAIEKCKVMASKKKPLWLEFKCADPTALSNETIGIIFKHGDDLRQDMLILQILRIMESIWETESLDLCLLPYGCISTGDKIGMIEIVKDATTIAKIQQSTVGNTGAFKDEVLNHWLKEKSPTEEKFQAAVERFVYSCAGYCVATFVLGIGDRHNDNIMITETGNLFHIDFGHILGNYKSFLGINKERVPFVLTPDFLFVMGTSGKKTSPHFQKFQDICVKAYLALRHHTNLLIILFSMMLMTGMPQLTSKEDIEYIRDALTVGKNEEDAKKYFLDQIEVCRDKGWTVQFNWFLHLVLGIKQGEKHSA

Take `COc1ncccc1-n1c(=O)n(C)c2cnc3ccc(-c4cnc5[nH]ccc5c4)cc3c21` [Example 1.2, 1-(2-Methoxy-pyridin-3-yl)-3-methyl-8-(1H-pyrrolo[2,3-b]pyridin-5-yl)-1,3-dihydro-imidazo[4,5-c]quinolin-2-one]: the IC50 is 168 nM.

Turning to `COc1ncccc1-n1c(=O)n(C)c2cnc3ccc(-c4ccc(C(N)=O)cc4)cc3c21` [Example 1.6, 4-[1-(2-Methoxy-pyridin-3-yl)-3-methyl-2-oxo-2,3-dihydro-1H-imidazo[4,5-c]quinolin-8-yl]-benzamide], the IC50 was determined as 120 nM.

Turning to `Cc1ncccc1-n1c(=O)n(C)c2cnc3ccc(-c4ccc(C(N)=O)cc4)cc3c21` [Example 2.3, 4-[3-Methyl-1-(2-methyl-pyridin-3-yl)-2-oxo-2,3-dihydro-1H-imidazo[4,5-c]quinolin-8-yl]-benzamide], the IC50 amounted to 230 nM.

For the molecule `Cc1ncccc1-n1c(=O)n(C)c2cnc3ccc(-c4ccc(CO)nc4)cc3c21` [Example 2.6, 8-(6-Hydroxymethyl-pyridin-3-yl)-3-methyl-1-(2-methyl-pyridin-3-yl)-1,3-dihydro-imidazo[4,5-c]quinolin-2-one], the IC50 is 913 nM.

`Cc1ncccc1-n1c(=O)n(C)c2cnc3ccc(-c4ccc(N)nc4)cc3c21` [Example 2.7, 8-(6-Amino-pyridin-3-yl)-3-methyl-1-(2-methyl-pyridin-3-yl)-1,3-dihydro-imidazo[4,5-c]quinolin-2-one]: the IC50 came to 388 nM.

For the molecule `COc1ccc(-c2ccc3ncc4c(c3c2)n(-c2cccnc2C)c(=O)n4C)cc1OC` [Example 2.9, 8-(3,4-Dimethoxy-phenyl)-3-methyl-1-(2-methyl-pyridin-3-yl)-1,3-dihydro-imidazo[4,5-c]quinolin-2-one], the IC50 came to 126 nM.

Turning to `Cc1ncccc1-n1c(=O)n(C)c2cnc3ccc(-c4cnc(N)c(C(F)(F)F)c4)cc3c21` [Example 2.11, 8-(6-Amino-5-trifluoromethyl-pyridin-3-yl)-3-methyl-1-(2-methyl-pyridin-3-yl)-1,3-dihydro-imidazo[4,5-c]quinolin-2-one], the IC50 is 124 nM.

Turning to `COc1ccc(-c2ccc3ncc4c(c3c2)n(-c2cccnc2C)c(=O)n4C)cn1` [Example 2.12, 8-(6-Methoxy-pyridin-3-yl)-3-methyl-1-(2-methyl-pyridin-3-yl)-1,3-dihydro-imidazo[4,5-c]quinolin-2-one], the IC50 was determined as 242 nM.

As to `CNc1ccc(-c2ccc3ncc4c(c3c2)n(-c2cccnc2C)c(=O)n4C)cn1` [Example 2.13, 3-Methyl-8-(6-methylamino-pyridin-3-yl)-1-(2-methyl-pyridin-3-yl)-1,3-dihydro-imidazo[4,5-c]quinolin-2-one], the IC50 is 195 nM.

For `Cc1cccnc1-n1c(=O)n(C)c2cnc3ccc(-c4ccc(C(N)=O)cc4)cc3c21` [Example 3.3, 4-[3-Methyl-1-(3-methyl-pyridin-2-yl)-2-oxo-2,3-dihydro-1H-imidazo[4,5-c]quinolin-8-yl]-benzamide], the IC50 turned out to be 322 nM.

In the case of `CNc1ncc(-c2ccc3ncc4c(c3c2)n(-c2ncccc2C)c(=O)n4C)cn1` [Example 3.4, 3-Methyl-8-(2-methylamino-pyrimidin-5-yl)-1-(3-methyl-pyridin-2-yl)-1,3-dihydro-imidazo[4,5-c]quinolin-2-one], the IC50 stood at 386 nM.

With `CNC(=O)c1ccc(-c2ccc3ncc4c(c3c2)n(-c2ncccc2C)c(=O)n4C)cc1` [Example 3.5, N-Methyl-4-[3-methyl-1-(3-methyl-pyridin-2-yl)-2-oxo-2,3-dihydro-1H-imidazo[4,5-c]quinolin-8-yl]-benzamide], the IC50 is 434 nM.

In the case of `CCOc1ccc(-c2ccc3ncc4c(c3c2)n(-c2ncccc2C)c(=O)n4C)cn1` [Example 3.6, 8-(6-Ethoxy-pyridin-3-yl)-3-methyl-1-(3-methyl-pyridin-2-yl)-1,3-dihydro-imidazo[4,5-c]quinolin-2-one], the IC50 was determined as 522 nM.

`COc1ccc(-c2ccc3ncc4c(c3c2)n(-c2ncccc2C)c(=O)n4C)cc1OC` [Example 3.10, 8-(3,4-Dimethoxy-phenyl)-3-methyl-1-(3-methyl-pyridin-2-yl)-1,3-dihydro-imidazo[4,5-c]quinolin-2-one]: the IC50 is 307 nM.

Regarding `Cc1cccnc1-n1c(=O)n(C)c2cnc3ccc(-c4ccc(N(C)C)nc4)cc3c21` [Example 3.11, 8-(6-Dimethylamino-pyridin-3-yl)-3-methyl-1-(3-methyl-pyridin-2-yl)-1,3-dihydro-imidazo[4,5-c]quinolin-2-one], the IC50 worked out at 846 nM.

`Cc1cccnc1-n1c(=O)n(C)c2cnc3ccc(-c4cnc(N)c(C(F)(F)F)c4)cc3c21` [Example 3.12, 8-(6-Amino-5-trifluoromethyl-pyridin-3-yl)-3-methyl-1-(3-methyl-pyridin-2-yl)-1,3-dihydro-imidazo[4,5-c]quinolin-2-one]: the IC50 turned out to be 202 nM.

Take `CCOc1ccc(-c2ccc3ncc4c(c3c2)n(-c2cnccc2C)c(=O)n4C)cn1` [Example 4.2, 8-(6-Ethoxy-pyridin-3-yl)-3-methyl-1-(4-methyl-pyridin-3-yl)-1,3-dihydro-imidazo[4,5-c]quinolin-2-one]: the IC50 was determined as 546 nM.

Take `COc1ccc(-c2ccc3ncc4c(c3c2)n(-c2cnccc2C)c(=O)n4C)cn1` [Example 4.3, 8-(6-Methoxy-pyridin-3-yl)-3-methyl-1-(4-methyl-pyridin-3-yl)-1,3-dihydro-imidazo[4,5-c]quinolin-2-one]: the IC50 was 439 nM.

Consider `Cn1c(=O)n(-c2cccnc2)c2c3cc(-c4ccc(CO)nc4)ccc3ncc21` [Example 5.1, 8-(6-Hydroxymethyl-pyridin-3-yl)-3-methyl-1-pyridin-3-yl-1,3-dihydro-imidazo[4,5-c]quinolin-2-one], for which the IC50 was 943 nM.

For the molecule `CN(C)c1ccc(-c2ccc3ncc4c(c3c2)n(-c2cccnc2)c(=O)n4C)cn1` [Example 5.3, 8-(6-Dimethylamino-pyridin-3-yl)-3-methyl-1-pyridin-3-yl-1,3-dihydro-imidazo[4,5-c]quinolin-2-one], the IC50 was determined as 362 nM.

As to `CCOc1ccc(-c2ccc3ncc4c(c3c2)n(-c2cccnc2F)c(=O)n4C)cn1` [Example 6.1, 8-(6-Ethoxy-pyridin-3-yl)-1-(2-fluoro-pyridin-3-yl)-3-methyl-1,3-dihydro-imidazo[4,5-c]quinolin-2-one], the IC50 stood at 206 nM.

For the molecule `Cn1c(=O)n(-c2cccnc2F)c2c3cc(-c4cnc(N)c(C(F)(F)F)c4)ccc3ncc21` [Example 6.2, 8-(6-Amino-5-trifluoromethyl-pyridin-3-yl)-1-(2-fluoro-pyridin-3-yl)-3-methyl-1,3-dihydro-imidazo[4,5-c]quinolin-2-one], the IC50 is 139 nM.
